This is an account of results in patent US20230416168A1 (EUROCHEM ANTWERPEN, priority 2020, published 2023).

“Also recorded” adds a separate entry of the source.

For one assay, the system named is Nitrosospira multiformis. In words: Nitrification inhibition assay with Nitrosospira multiformis (nitrite level after 24 h). Format: cell-based. As to conditions: for IC50 / activity at 100 µM: Nitrosospira multiformis; for IC50: 8-point dose response, 2 to 100 μM, read-out: IC50; for activity at 100 µM: tested concentration 100 μM, 24 h, normalized to DMSO (100%) and 100 μM DMP (0%), read-out: Nitrification at tested concentration (0 = maximum activity). Here is the method:
(§1) The compounds of formula (I) and (II) and (III)/(IV) were tested for their nitrification inhibition effect in two screens, using assays with the nitrifying bacteria N. europaea and N. multiformis. In practice, ammonium and candidate nitrification inhibitors (at 100 μM) were added to a dense bacterial culture in multiwell culture plates and after 24 h of incubation, the nitrite level was measured. To normalize for differences between batches of cultures and multiwell culture plates, for each well a relative nitrification was calculated that was normalized towards both the negative and positive controls (see “Material and Methods” below for full details).
(§2) Nitrite (NO2−) was measured using the Griess reagent (Product number: G4410, Griess reagent (modified), Sigma-Aldrich). Equal volumes of the sample or a diluted sample and the Griess reagent were mixed a transparent flat bottom multi-well plate and incubated in the dark at room temperature for 10 minutes. Absorbance values at 540 nm were measured spectrophotometrically (EnVision, Perkin Elmer®) and used to calculate the [NO2−] by use of a standard curve.
Cultures were first 5 times overconcentrated in fresh 181-medium by centrifugation (4000 rpm, 15 min, 5° C.) in 50 mL centrifuge tubes (Cat. No. 430829, CentriStar™ Conical Centrifuge Tubes, Corning®). Per batch, all the cultures were pooled in one sterile Schott bottle and subsequently dispensed in 384-well plates (Cat. No. 781086, CELLSTAR® plate, Greiner BioOne; 50 μl/well) by use of a dispenser (Multidrop™ Combi Reagent Dispenser, Thermo Scientific™) that was first flushed with 181-medium. 0.5 μl of 99.99% DMSO (negative control—final concentration […] was added to the outer two columns on the left side of the plate and 0.5 μl of 10 mM DMP (3,4-dimethylpyrazole, positive control—final concentration 100 μM) was added to the outer two columns on the right side manually. Finally, 0.5 μl of candidate nitrification inhibitors (5 mM stock solutions in 99.99% DMSO—final concentration 50 μM) were added to the central wells using a pin tool on a Tecan robot (Freedom EVO®, Tecan). In between additions, the pins were washed in sequence with 99.5% DMSO, MilliQ water and 100% ethanol and air-dried. All plates were separately wrapped in Parafilm. Stacks of 4 plates were put on top of a 96-well plate filled with 100 μl MilliQ per well, covered with aluminum foil and shaken (±150 rpm) at 30° C. 24 h later, NO2− production was assessed. For this, the samples were first 100 times diluted by pipetting 3 μl of samples into 300 μl fresh growth medium in intermediate plates (Cat. No. 353077, Falcon® 96-well Clear Round Bottom Microplate, Corning®) to then mix 15 μl of the diluted samples with 15 μl Griess reagent in the wells of a transparent, flat bottom 384-well plate (Cat. No. X^7001, Low Profile Microplate, Molecular Devices) that was measured spectrophotometrically at 540 nm (EnVision, Perkin Elmer®).
(§3) To assess the efficacy of the compounds (in terms of nitrification inhibition) and to enable comparison between plates and batches of cultures, we calculated the relative nitrification. More in detail, all nitrite results were normalized towards both a negative control, containing no compound, and a positive control, containing the benchmark (100 μM DMP), using Equation 1. This normalization was done per multi-well plate and each plate contained 32 positive and 32 negative controls.
IC50 values, that is the concentration that inhibits 50% of the nitrification, were calculated after fitting a logistic curve to 8-point dose response data, using doses between 2 and 100 μM with 1.75 fold steps. If a concentration of 2 μM already inhibited nitrification, the IC50 value could not be calculated. In that case, IC50 values represent the dose that gives inhibition closest to 50%.
The compounds of formula (I) and (II) were tested for their nitrification inhibition effect in two screens, using assays with the nitrifying bacteria N. europaea and N. multiformis. […]

Assay [1] deals with NH3 or NH2OH oxidation in N. europaea cells. In words: Nitrosomonas europaea ammonia vs. hydroxylamine oxidation assay. As to conditions: for Nitrification from NH2OH (% compared to DMSO): 1 mM NH2OH as N-source; for Nitrification from NH2OH (% compared to DMSO) / Nitrification from NH3 (% compared to DMSO): compounds 50 μM, NO2- after 30 min; for Nitrification from NH3 (% compared to DMSO): NH4+ 1 mM as N-source. It is filed as cell-based. Here is the method:
Two days old, late-log phase cultures with a NO2− concentration between 10 and 20 mM were washed 3 times in fresh growth medium (without N) and finally 4 times overconcentrated via centrifugation (4000 rpm, 15 min, 4° C.). Transparent, flat bottom 96-well plate (Cat. No. 353072, Falcon® 96 Well Clear Flat Bottom Microplate, Corning®) were filled with 150 μl culture per well using a dispenser (Multidrop™ Combi Reagent Dispenser, Thermo Scientific™). Compounds (final concentration 50 μM) were added in triplicate to the multi-well plate by use of a Tecan robot (Freedom EVO®, Tecan). Thiourea (positive control for inhibition of NH3 oxidation—final concentration 100 μM) and phenylhydrazine hydrochloride (positive control for inhibition of NH2OH oxidation—final concentration 1 mM) were added to the outer two columns. Each plate was made in duplicate to add either 500 μM (NH4)2SO4 (final [NH4+]=1 mM) or 1 mM NH2OH. All plates were separately wrapped in Parafilm. Stacks of 4 plates were put on top of a 96-well plate filled with 100 μl MilliQ per well, covered with aluminum foil and shaken (±150 rpm) at 28° C. To prevent read-out of secondary effects on NO2− production, NO2− was measured only 30 min later. For this, the samples were first 2 times diluted by pipetting 15 μl in 15 μl fresh growth medium in 96-well intermediate plates (Cat. Ref. PCR-96-FS-C, 96-well PCR Microplate, Axygen®) to then mix 15 μl of the diluted samples with 15 μl Griess reagent in the wells of a transparent, flat bottom 384-well plate (Cat. No. X^7001, Low Profile Microplate, Molecular Devices) that was measured spectrophotometrically at 540 nm (EnVision, Perkin Elmer®).
To get insights on the targeted metabolic pathway and to discriminate between compounds that specifically affect NH3 oxidation or that affect another pathway, three representative novel nitrification inhibitors (Examples 1, 5 and 6) were tested in the “ammonia vs hydroxylamine oxidation assay” in which NO2− production from NH3 was compared with NO2− production from NH2OH.

Another assay concerns Nitrosomonas europaea. The experiment in a line: Nitrification inhibition assay with Nitrosomonas europaea (nitrite level after 24 h). Format: cell-based. Conditions: for IC50 / activity at 100 µM: Nitrosomonas europaea; for IC50: 8-point dose response, 2 to 100 μM, read-out: IC50; for activity at 100 µM: tested concentration 100 μM, 24 h, normalized to DMSO (100%) and 100 μM DMP (0%), read-out: Nitrification (%) at tested concentration (0 = maximum activity). Here is the method:
as §1, §2
To prepare a high-throughput nitrification inhibition assay using N. europaea, late-log phase cultures were subcultivated two days before the assay. Just before the assay, the cultures were 5 times overconcentrated with fresh growth medium after centrifugation (4000 rpm, 15 min, 5° C.) in 50 mL centrifuge tubes (Cat. No. 430829, CentriStar™ Conical Centrifuge Tubes, Corning®). Per batch, all the cultures were pooled in one sterile Schott bottle and subsequently dispensed into 384-well plates (Cat. No. 781086, CELL-STAR® plate, Greiner Bio-One; 50 μl/well) by use of a dispenser (Multidrop™ Combi Reagent Dispenser, Thermo Scientific™) that was first flushed with growth medium. Specifically for the high-throughput screen for new nitrification inhibitors, 0.5 μl of 99.99% DMSO (negative control—final concentration 1%) was added to the outer two columns on the left side of the plate and 0.5 μl of 10 mM DMP (3,4-dimethylpyrazole, positive control—final concentration 100 μM) was added to the outer two columns on the right side manually. Finally, 0.5 μl of candidate nitrification inhibitors (5 mM stock solutions in 99.99% DMSO—final concentration 50 μM) were added to the central wells using a pin tool on a Tecan robot (Freedom EVO®, Tecan). In between additions, the pins were washed in sequence with 99.5% DMSO, MilliQ water and 100% ethanol and air-dried. All plates were separately wrapped in Parafilm. Stacks of 4 plates were put on top of a 96-well plate filled with 100 μl MilliQ per well, covered with aluminum foil and shaken at 150 rpm at 28° C. 24 h later, NO2− production was assessed. For this, the samples were first 200 times diluted by pipetting 1.5 μl of samples into 300 μl of fresh growth medium in intermediate plates (Cat. No. 353077, Falcon® 96-well Clear Round Bottom Microplate, Corning®), to then mix 15 μl of the diluted samples with 15 μl Griess reagent in the wells of a transparent, flat bottom 384-well plate (Cat. No. X^7001, Low Profile Microplate, Molecular Devices) that was measured spectrophotometrically at 540 nm (EnVision, Perkin Elmer®).
as §3
IC50 values, that is the concentration that inhibits 50% of the nitrification, were calculated after fitting a logistic curve to 8-point dose response data, using doses between 2 and 100 μM with 1.75 fold steps. […]

The next assay deals with Merelbeke soil. In words: In soil nitrification inhibition assay, Merelbeke soil. Conditions: for inhibition of ammonium consumption in soil, in words: 50 μM, one week of treatment; for inhibition at 50 µM: soil, 168 h, 7 days, read-out: % Nitrification inhibition in soil (7 days of incubation, Merelbeke soil). Here is the method:
Top layer (0 to 10 cm) soil samples were collected from different fields in Belgium (Merelbeke and Moorslede). Vegetation on the field trial was removed and samples were taken from different plots. All soil samples were mixed and sieved (mesh size 2.8 mm) to filter large debris and homogenize soil. The soil was stored at 5° C. in plastic containers covered with Saran foil to prevent changes in microbial community composition and to maintain the original soil water content. Soil water content was determined by drying 20 g soil for 48 h in a 60° C. oven and measuring weight before and after drying. Based on the soil water content (±20%), compound solutions were prepared so that addition of 200 μl compound and 200 μl NH4Cl solution would result in a final compound concentration of 50 μM and a final NH4^+ concentration of 10 mM. Per treatment, 5 small pots were filled with 20 g soil. Next, the soil was treated first with the respective compound solution and then with the NH4Cl solution. Per tray, positive (50 μM DMP) and negative controls (DMSO) were included. Pots were incubated at 21° C. (6 a.m. to 10 p.m. light) for 7 days. Demineralized water was added to the soil every 2 to 3 days to a soil weight of 20 g. In the end, each sample of 20 g soil was dissolved in 100 ml 1M KCl and shaken for 1 hour, followed by filtration through Whatmann® paper. The filtrate was used to measure pH, NH4^+ and NO3− concentrations. The nitrification inhibitors were applied in a nitrification inhibition assay using agricultural soil. In practice, ammonium with or without the new nitrification inhibitors was added to soil from a field in Merelbeke (Belgium). The ammonium level was measured at the start of the experiment and at the end of the experiment, after one week of incubation. A nitrification inhibition percentage was calculated by comparing the reduction in ammonium level with the nitrification inhibitor to the reduction in ammonium without the nitrification inhibitor. Ammonium was added to soil with a high nitrification activity and treated with the nitrification inhibitors (final concentration of 50 μM). […] This validates that the new nitrification inhibitors are effectively inhibiting ammonia oxidation by soil communities.

Regarding `CN(Cc1c(F)cccc1Cl)CN1CCOC1=S` [Example 6, 3-[[(2-chloro-6-fluorophenyl)methyl-methylamino]methyl]-1,3-oxazolidine-2-thione], in the assay with Nitrosospira multiformis, the “nitrification inhibition, in words” value is listed as “strong nitrification inhibition”; the half-inhibitory concentration (IC50) was less than 3.5 µM; the activity at 100 µM came out at 0%. For the same compound, in assay [1], the “Nitrification from NH2OH (% compared to DMSO)” value is reported as 80% and the “Nitrification from NH3 (% compared to DMSO)” value is on record as 18%. For the same compound, in the assay on Nitrosomonas europaea, the “nitrification inhibition, in words” value is listed as “strong nitrification inhibition”; the IC50 was 14 µM; the activity at 100 µM is 0%.

For `CCC1CCCCN1C(=O)CSC1=NCCS1` (stereo not drawn) [Example 9], in the assay with Nitrosospira multiformis, the IC50 was less than 6 µM and the activity at 100 µM is 0%. Besides, in the assay with Merelbeke soil, the “inhibition of ammonium consumption in soil, in words” value is “significant inhibition” and the inhibition at 50 µM turned out to be 10%. Further, in the assay on Nitrosomonas europaea, the IC50 was more than 100 µM and the activity at 100 µM was determined as 68%.

For the compound `O=C(CSC1=NCCS1)N1CCCC1` [Example 10], in the assay on Nitrosospira multiformis, the IC50 is less than 10 µM and the activity at 100 µM is 6%. In the assay with Merelbeke soil, the “inhibition of ammonium consumption in soil, in words” value is recorded as “significant inhibition” and the inhibition at 50 µM amounted to 7%. Besides, in the assay with Nitrosomonas europaea, the IC50 is more than 100 µM and the activity at 100 µM turned out to be 81%.

For the compound `Cc1c[nH]nc1C` [Example C1, 3,4-dimethylpyrazole, reference compound], in the assay on Nitrosospira multiformis, the IC50 came to 14 µM and the activity at 100 µM was 0%. In assay [1], the “Nitrification from NH2OH (% compared to DMSO)” value is given as 56% and the “Nitrification from NH3 (% compared to DMSO)” value came to 27%. Moreover, the “effect on hydroxylamine (NH2OH) oxidation, in words” value in assay [1] (30 minutes assay, listed as DMP) is “reduced NH2OH oxidation; also recorded: limited effect”. In the assay on Nitrosomonas europaea, the IC50 amounted to 6 µM and the activity at 100 µM worked out at 0%.
